In patent publication US8629168B2, “Benzoxazoles and oxazolopyridines being useful as janus kinases inhibitors” (priority 2006, dated 2014):

Experiments:
GST-JAK2 = biological target: T1, GST-JAK2 (Homo sapiens, UniProt O60674); assay: JAK2 kinase assay of the general description (alternative method, flash plate); type: biochemical; conditions: 1.0 μM ATP, read-out: IC50 with test in general description (named “alternative method to that given in the examples”) (“flash plate”)
T1 construct: the amino acid domain ASP751-VAL1129 of the JAK2 protein
Description: Baculovirus including the amino acid domain ASP751-VAL1129 of the JAK2 protein is obtainable by ProQinase, Freiburg, Germany. The virus is scaled up as following: Virus containing media is collected from the transfected cell culture and used for infection to increase its titer. Virus containing media obtained after two rounds of infection is used for large-scale protein expression. For large-scale protein expression 100 cm^2 round tissue culture plates are seeded with 5×10^7 cells/plate and infected with 1 mL of virus-containing media (approx. 5 MOIs). After 3 days the cells are scraped off the plate and centrifuged at 500 rpm for 5 min. Cell pellets from 10-20, 100 cm^2 plates, are re-suspended in 50 mL of ice-cold lysis buffer (25 mMTris-HCl, pH7.5, 2 mMEDTA, 1% NP-40, 1 mM DTT, 1 mMP MSF). The cells are stirred on ice for 15 min and then centrifuged at 5000 rpms for 20 min. The protein is purified by loading the centrifuged cell lysate onto a 2 mL glutathione-sepharose column and washed three times with 10 mL of 25 mM Tris-HCl, pH 7.5, 2 mM EDTA, 1 mM DTT, 200 mM NaCl. The GST-tagged proteins are then eluted by 10 applications (1 mL each) of 25 mM Tris-HCl, pH 7.5, 10 mM reduced-glutathione, 100 mM NaCl, 1 mM DTT, 10% Glycerol and stored at −70° C.
Cancer Cell; 5: 231-239]. The test compound is dissolved in DMSO (10 mM) and stored at −20° C. Serial dilutions are freshly made in DMSO and are […] concentrated than test solutions (“pre-dilution plates”). They are further diluted with pure water to yield “master plates” containing 3 times concentrated test solutions in 3% DMSO. The final volume of the assay is 30 μL containing 10 μL of test solution (1% DMSO), 10 μL assay mix including the assay components described by Garcia-Echeverria (2004) and in the following section as well as 10 μL enzyme. The pipetting steps can be programmed to be performed either on the MultiPROBE Iix, MultiPROBE IILx or HamiltonSTAR robots in the 96 well format.
The protein kinase assays are carried as described in details by Garcia-Echeverria (see above). The assay for JAK2 is carried out in 96-well plates at ambient temperature for 10 min (filter-biding method) or 30 min (flash plates) in a finial volume of 30 μL including the following components: 300 ng of GST-JAK2, 20 mM Tris-HCl, pH 7.5, 1.0 mM MnCl2, 10 mM MgCl2, 1 mM DTT, 3 μg/mL poly(Glu, Tyr) 4:1, 1% DMSO and 1.0 μM ATP (γ-[^33P]-ATP 0.1 μCi); The assays are terminated by the addition of 20 μl of 125 mM EDTA. The capturing of the phosphorylated peptides by the filter-binding method is performed as following: 40 μL of the reaction mixture are transferred onto Immobilon-PVDF membranes previously soaked for 5 min with methanol, rinsed with water, then soaked for 5 min with 0.5% H3PO4 and mounted on vacuum manifold with disconnected vacuum source. After spotting all samples, vacuum is connected and each well rinsed with 200 μl 0.5% H3PO4. Free membranes are removed and washed 4× on a shaker with 1.0% H3PO4, once with ethanol. Membranes are counted after drying at ambient temperature, mounting in Packard TopCount 96-well frame, and addition of 10 μl/well of Microscint. The plates are eventually sealed and counted in a microplate scintillation counter (TopCount NXT, TopCount NXT HTS, PerkinElmer, Brussels, Belgium).
The assays for the flash plate method is carried out in a total volume of 30 μL at RT in conventional 96-well flash plates. The reaction is stopped after 30 min by the addition of 20 μL of 125 mM EDTA The assay plates are then washed three times with PBS and dried at room temperature. The plates are sealed and counted in a microplate scintillation counter (TopCount NXT, TopCount NXT HTS). IC50 values are calculated by linear regression analysis of the percentage inhibition of the compound either in duplicate, at four concentrations (usually 0.01, 0.1, 1 and 10 μM) or as 8 single point IC50 starting at 10 μM following by 1:3 dilutions.

T1 sequence (O60674 751-1129): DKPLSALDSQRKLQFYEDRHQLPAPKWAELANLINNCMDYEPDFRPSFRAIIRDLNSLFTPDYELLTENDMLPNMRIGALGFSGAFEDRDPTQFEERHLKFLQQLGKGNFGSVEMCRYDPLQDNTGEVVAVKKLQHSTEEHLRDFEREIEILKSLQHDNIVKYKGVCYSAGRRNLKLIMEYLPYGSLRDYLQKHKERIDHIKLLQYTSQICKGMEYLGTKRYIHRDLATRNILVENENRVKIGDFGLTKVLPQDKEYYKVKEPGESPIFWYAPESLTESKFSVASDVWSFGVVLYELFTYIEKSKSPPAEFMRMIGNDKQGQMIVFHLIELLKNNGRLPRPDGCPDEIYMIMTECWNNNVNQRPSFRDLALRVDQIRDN

SMILES	melting point	IC50 (GST-JAK2)
COc1cc(Nc2nc3cccc(-c4ccc(C#N)cc4)c3o2)cc(OC)c1OC [Example 19, 4-[2-(3,4,5-Trimethoxy-phenylamino)-benzooxazol-7-yl]-benzonitrile]	222 to 223 °C	170 nM
COc1cc(Nc2nc3cccc(-c4ccc5ncccc5c4)c3o2)cc(OC)c1OC [Example 15, (7-Quinolin-6-yl-benzooxazol-2-yl)-(3,4,5-trimethoxy-phenyl)-amine]	187 to 190 °C	570 nM
COc1cccc(-c2cccc3nc(Nc4ccc(N5CCOCC5)cc4)oc23)c1 [Example 39, [7-(3-Methoxy-phenyl)-benzooxazol-2-yl]-(4-morpholin-4-yl-phenyl)-amine]	180 to 182 °C	1200 nM
COc1cc(Nc2nc3cccc(-c4ccn[nH]4)c3o2)cc(OC)c1OC [Example 20, [7-(2H-Pyrazol-3-yl)-benzooxazol-2-yl]-(3,4,5-trimethoxy-phenyl)-amine]	185 to 189 °C	1000 nM
COc1ccc(-c2cccc3nc(Nc4cc(OC)c(OC)c(OC)c4)oc23)cn1 [Example 12, [7-(6-Methoxy-pyridin-3-yl)-benzooxazol-2-yl]-(3,4,5-trimethoxy-phenyl)-amine]	192 to 193 °C	670 nM
COc1ccccc1-c1cccc2nc(Nc3cc(OC)c(OC)c(OC)c3)oc12 [Example 5, [7-(2-Methoxy-phenyl)-benzooxazol-2-yl]-(3,4,5-trimethoxy-phenyl)-amine]	185 to 187 °C	150 nM
COc1cc(Nc2nc3cccc(-c4cccc(NC(C)=O)c4)c3o2)cc(OC)c1OC [Example 28, N-{3-[2-(3,4,5-Trimethoxy-phenylamino)-benzooxazol-7-yl]-phenyl}-acetamide]	170 to 172 °C	310 nM
COc1cc(Nc2nc3ccnc(-c4cccc(N)c4)c3o2)cc(OC)c1OC [Example 37, [4-(3-Amino-phenyl)-oxazolo[5,4-c]pyridin-2-yl]-(3,4,5-trimethoxy-phenyl)-amine]	120 to 126 °C	240 nM
COc1cc(Nc2nc3cccc(-c4ccc(C(=O)N(C)C)cc4)c3o2)cc(OC)c1OC [Example 25, N,N-Dimethyl-4-[2-(3,4,5-trimethoxy-phenylamino)-benzooxazol-7-yl]-benzamide]	> 280 °C	140 nM
COc1cc(Nc2nc3cccc(-c4ccc(S(=O)(=O)N5CCOCC5)cc4)c3o2)cc(OC)c1OC [Example 23, {7-[4-(Morpholine-4-sulfonyl)-phenyl]-benzooxazol-2-yl}-(3,4,5-trimethoxy-phenyl)-amine]	201 to 203 °C	190 nM
COc1cc(Nc2nc3cccc(-c4ccc(N)cc4)c3o2)cc(OC)c1OC [Example 11, [7-(4-Amino-phenyl)-benzooxazol-2-yl]-(3,4,5-trimethoxy-phenyl)-amine]	192 to 196 °C	147 nM
COc1cc(Nc2nc3cccc(-c4cncc5ccccc45)c3o2)cc(OC)c1OC [Example 8, (7-Isoquinolin-4-yl-benzooxazol-2-yl)-(3,4,5-trimethoxy-phenyl)-amine]	201 to 203 °C	368 nM
Nc1ccc(-c2cccc3nc(Nc4ccc(N5CCOCC5)cc4)oc23)cc1 [Example 40, [7-(4-Aminophenyl)-benzooxazol-2-yl]-(4-morpholin-4-yl-phenyl)-amine]	241 to 243 °C	1100 nM
COc1cc(Nc2nc3cccc(-c4cccc(CN)c4)c3o2)cc(OC)c1OC [Example 32, [7-(3-Aminomethyl-phenyl)-benzooxazol-2-yl]-(3,4,5-trimethoxy-phenyl)-amine]	145 to 150 °C	270 nM
COc1cc(Nc2nc3cccc(-c4cccc(N)c4)c3o2)cc(OC)c1OC [Example 10, [7-(3-Amino-phenyl)-benzooxazol-2-yl]-(3,4,5-trimethoxy-phenyl)-amine]	145 to 170 °C	132 nM
COc1cc(Nc2nc3cccc(-c4ccc(C)c(N)c4)c3o2)cc(OC)c1OC [Example 13, [7-(3-Amino-4-methyl-phenyl)-benzooxazol-2-yl]-(3,4,5-trimethoxy-phenyl)-amine]	188 to 190 °C	174 nM
COc1cc(Nc2nc3cccc(-c4cccc(C)c4)c3o2)cc(OC)c1OC [Example 1, (7-m-Tolyl-benzooxazol-2-yl)-(3,4,5-trimethoxy-phenyl)-amine]	155 to 158 °C	337 nM
COc1cc(Nc2nc3cccc(-c4ccc(NC(C)=O)cc4)c3o2)cc(OC)c1OC (hydrate or solvate) [Example 27, N-{4-[2-(3,4,5-Trimethoxy-phenylamino)-benzooxazol-7-yl]-phenyl}-acetamide]	265 to 270 °C	
COc1cc(Nc2nc3cccc(-c4ccccc4)c3o2)cc(OC)c1OC [Example 2, (7-Phenyl-benzooxazol-2-yl)-(3,4,5-trimethoxy-phenyl)-amine]	182 to 185 °C	
COc1cc(Nc2nc3cccc(-c4ccc(S(=O)(=O)N(C)C)cc4)c3o2)cc(OC)c1OC [Example 22, N,N-Dimethyl-4-[2-(3,4,5-trimethoxy-phenylamino)-benzooxazol-7-yl]-benzenesulfonamide]	230 to 233 °C	140 nM
COc1cc(Nc2nc3cccc(-c4cccc(CNC(C)=O)c4)c3o2)cc(OC)c1OC [Example 33, N-{3-[2-(3,4,5-Trimethoxy-phenylamino)-benzooxazol-7-yl]-benzyl}-acetamide]	203 to 204 °C	290 nM
COc1cccc(-c2cccc3nc(Nc4cc(OC)c(OC)c(OC)c4)oc23)c1 [Example 4, [7-(3-Methoxy-phenyl)-benzooxazol-2-yl]-(3,4,5-trimethoxy-phenyl)-amine]	167 to 170 °C	99 nM
Nc1cccc(-c2cccc3nc(Nc4ccc(N5CCOCC5)nc4)oc23)c1 [Example 42, [7-(3-Amino-phenyl)-benzooxazol-2-yl]-(6-morpholin-4-yl-pyridin-3-yl)-amine]	235 to 237 °C	1200 nM
COc1cc(Nc2nc3cccc(-c4cccc(Cl)c4)c3o2)cc(OC)c1OC [Example 9, [7-(3-Chloro-phenyl)-benzooxazol-2-yl]-(3,4,5-trimethoxy-phenyl)-amine]	199 to 201 °C	590 nM
COc1cc(Nc2nc3cccc(-c4cccnc4)c3o2)cc(OC)c1OC [Example 3, (7-Pyridin-3-yl-benzooxazol-2-yl)-(3,4,5-trimethoxy-phenyl)-amine]	165 to 170 °C	583 nM
